The values below come from publication PMC10545696, “Fast functional mapping of ligand-gated ion channels” (Communications Biology, 2023).

For the assay, the target named is T1, P2X2 (His-rP2x2-StrepII) (Rattus norvegicus, UniProt P49653).
T1 construct: gene P2rx2; His tag and StrepII tag; homotrimer
T1 sequence (P49653 1-472): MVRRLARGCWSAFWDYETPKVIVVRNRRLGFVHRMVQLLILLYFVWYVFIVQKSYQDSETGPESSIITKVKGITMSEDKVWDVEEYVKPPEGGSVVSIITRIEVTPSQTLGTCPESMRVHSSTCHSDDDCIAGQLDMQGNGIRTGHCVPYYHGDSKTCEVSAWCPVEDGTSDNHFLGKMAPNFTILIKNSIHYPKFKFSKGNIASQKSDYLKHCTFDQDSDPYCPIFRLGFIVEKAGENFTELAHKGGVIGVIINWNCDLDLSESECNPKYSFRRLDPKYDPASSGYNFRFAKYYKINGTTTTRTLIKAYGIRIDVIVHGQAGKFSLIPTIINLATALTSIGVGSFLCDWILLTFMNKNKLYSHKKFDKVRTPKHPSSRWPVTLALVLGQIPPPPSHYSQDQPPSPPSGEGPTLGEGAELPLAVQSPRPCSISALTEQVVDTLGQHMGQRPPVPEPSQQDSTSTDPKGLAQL
The assay is described as follows: whole-cell patch clamp, HEK293, multi-step microfluidic application. The format is cell-based.

Broadly, the EC50 is the concentration needed to bring the measured effect to its halfway point. Read a low EC50 as greater potency.

The molecule `Nc1ncnc2c1ncn2[C@@H]1O[C@H](COP(=O)(O)OP(=O)(O)OP(=O)(O)O)[C@@H](O)[C@H]1O` [ATP] showed an EC50 of 1500 ± 20 nM.
